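Where inhibition never reached the appropriate level, the endpoint shown equals the highest concentration tested. Otherwise, values were interpolated linearly from a five-concentration, 48-hour dose response in 96-well plates. Abbreviation: GI50, concentration required for 50% inhibition of growth.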 The source made the active and inactive calls. Cut-off read from the data, not from the text of the source: active = GI50 up to about 1.1 µM and inactive = higher.
Assays:
Assay in all cases: NCI-60 cell line screen, 48 h
UACC-257 = system: UACC-257
MDA-MB-435 = system: MDA-MB-435
OVCAR-8 = system: OVCAR-8
SK-OV-3 = system: SK-OV-3
CCRF-CEM = system: CCRF-CEM
HCT-116 = system: HCT-116
NCI/ADR-RES = system: NCI/ADR-RES
OVCAR-5 = system: OVCAR-5
CAKI-1 = system: CAKI-1
SR = system: SR
786-0 = system: 786-0
MDA-N = system: MDA-N
UACC-62 = system: UACC-62
M14 = system: M14
K562 = system: K562
HL-60 = system: HL-60
MCF7 = system: MCF7
SN12C = system: SN12C
U-251 = system: U-251
BT-549 = system: BT-549
HCC 2998 = system: HCC 2998
NCI-H23 = system: NCI-H23
ACHN = system: ACHN
HT-29 = system: HT-29
SK-MEL-5 = system: SK-MEL-5
SK-MEL-28 = system: SK-MEL-28
HCT-15 = system: HCT-15
MDA-MB-231 = system: MDA-MB-231
PC-3 = system: PC-3
TK-10 = system: TK-10
SK-MEL-2 = system: SK-MEL-2
SF-295 = system: SF-295
Hs-578T = system: Hs-578T
MOLT-4 = system: MOLT-4
T47D = system: T47D
HOP-92 = system: HOP-92
NCI-H522 = system: NCI-H522
LOX IMVI = system: LOX IMVI
OVCAR-3 = system: OVCAR-3
NCI-H460 = system: NCI-H460
SF-539 = system: SF-539
EKVX = system: EKVX
HOP-62 = system: HOP-62
COLO 205 = system: COLO 205
IGROV-1 = system: IGROV-1
NCI-H226 = system: NCI-H226
Malme-3M = system: Malme-3M
A549 = system: A549
RXF 393 = system: RXF 393
SW-620 = system: SW-620
DU-145 = system: DU-145
SNB-19 = system: SNB-19
A498 = system: A498
KM12 = system: KM12
RPMI-8226 = system: RPMI-8226
SF-268 = system: SF-268
UO-31 = system: UO-31
SNB-75 = system: SNB-75
OVCAR-4 = system: OVCAR-4

Measured: GI50

COc1ccc2c(c1)/C(=C\c1c(Cl)[nH]c3ccccc13)C(=O)N2
5.14 µM: HCT-15
inactive: UACC-257 6.14 µM | MDA-MB-435 1.91 µM | OVCAR-8 11.1 µM | SK-OV-3 2.97 µM | CCRF-CEM 3.21 µM | HCT-116 2.57 µM | NCI/ADR-RES 2.81 µM | OVCAR-5 10.9 µM | CAKI-1 3.86 µM | SR 2.03 µM | 786-0 4.49 µM | MDA-N 1.75 µM | UACC-62 5.16 µM | M14 4.08 µM | K562 3.62 µM | HL-60 3.18 µM | MCF7 3.58 µM | SN12C 7.8 µM | U-251 3.71 µM | BT-549 3.3 µM | HCC 2998 2.68 µM | NCI-H23 11.4 µM | ACHN 5.25 µM | HT-29 2.14 µM | SK-MEL-5 3.6 µM | SK-MEL-28 3.39 µM | MDA-MB-231 4.47 µM | PC-3 4.9 µM | TK-10 6.9 µM | SK-MEL-2 4.21 µM | SF-295 1.97 µM | Hs-578T 2.51 µM | MOLT-4 5.33 µM | T47D 26.1 µM | HOP-92 1.84 µM | NCI-H522 3.05 µM | LOX IMVI 5.09 µM | OVCAR-3 6 µM | NCI-H460 3.98 µM | SF-539 3.61 µM | EKVX 3.3 µM | HOP-62 5.75 µM | COLO 205 2.27 µM | IGROV-1 1.21 µM | NCI-H226 16.2 µM | Malme-3M 5.92 µM | A549 4.99 µM | RXF 393 2.88 µM | SW-620 3.4 µM | DU-145 19.3 µM | SNB-19 6.62 µM | A498 8 µM | KM12 3.05 µM | RPMI-8226 3.61 µM | SF-268 4 µM | UO-31 6.78 µM

S=C1N(c2ccc(Cl)cc2)C2=C(/N=N/c3ccccc3)C(=Nc3ccccc3S2)N1c1ccccn1
active: MCF7 0.167 µM | T47D 0.075 µM | IGROV-1 0.164 µM | A498 < 0.01 µM
10.2 µM: HCT-15
inactive: UACC-257 15.8 µM | MDA-MB-435 13.5 µM | OVCAR-8 14.5 µM | SK-OV-3 17.8 µM | CCRF-CEM 5.36 µM | HCT-116 14.1 µM | NCI/ADR-RES 15.5 µM | OVCAR-5 19.1 µM | CAKI-1 13.8 µM | SR 11.2 µM | 786-0 14.9 µM | MDA-N 15.4 µM | M14 13.7 µM | HL-60 12 µM | SN12C 12.5 µM | U-251 11 µM | BT-549 11.1 µM | SNB-75 19 µM | HCC 2998 17.4 µM | NCI-H23 15 µM | ACHN 14.5 µM | HT-29 17.1 µM | SK-MEL-5 11.4 µM | SK-MEL-28 15.4 µM | MDA-MB-231 12.8 µM | PC-3 13.2 µM | TK-10 14.8 µM | SF-295 15.7 µM | Hs-578T 16.4 µM | MOLT-4 13.9 µM | HOP-92 12.6 µM | LOX IMVI 10.4 µM | OVCAR-3 14.2 µM | NCI-H460 11 µM | SF-539 16.6 µM | EKVX 12.2 µM | HOP-62 19.4 µM | COLO 205 12.6 µM | Malme-3M 2.78 µM | A549 13.6 µM | SW-620 16.4 µM | DU-145 14.7 µM | SNB-19 13.9 µM | KM12 11.6 µM | RPMI-8226 17.7 µM | SF-268 3.59 µM | UO-31 10.1 µM

CC1CN=C(Nc2ccc(F)c(Cl)c2)S1 (centres undefined)
inactive: UACC-257 86.5 µM | MDA-MB-435 > 100 µM | OVCAR-8 > 100 µM | SK-OV-3 > 100 µM | CCRF-CEM 29.7 µM | HCT-116 71 µM | NCI/ADR-RES 42.5 µM | OVCAR-5 > 100 µM | CAKI-1 53.6 µM | SR 31.5 µM | 786-0 > 100 µM | MDA-N > 100 µM | UACC-62 > 100 µM | M14 > 100 µM | K562 62.1 µM | HL-60 29.9 µM | MCF7 > 100 µM | U-251 95.3 µM | BT-549 > 100 µM | SNB-75 > 100 µM | HCC 2998 > 100 µM | NCI-H23 51.5 µM | ACHN > 100 µM | HT-29 > 100 µM | SK-MEL-5 58.5 µM | SK-MEL-28 > 100 µM | MDA-MB-231 > 100 µM | PC-3 72.4 µM | TK-10 > 100 µM | SK-MEL-2 > 100 µM | SF-295 > 100 µM | Hs-578T > 100 µM | MOLT-4 > 10 µM | T47D 88.9 µM | HOP-92 28.9 µM | NCI-H522 58.2 µM | LOX IMVI 86.7 µM | OVCAR-3 > 100 µM | NCI-H460 > 100 µM | SF-539 > 100 µM | EKVX 43.2 µM | HOP-62 > 100 µM | COLO 205 > 100 µM | IGROV-1 81.7 µM | NCI-H226 > 100 µM | Malme-3M > 100 µM | A549 88.9 µM | RXF 393 37.6 µM | SW-620 > 100 µM | DU-145 > 100 µM | SNB-19 > 100 µM | A498 62.8 µM | KM12 > 100 µM | RPMI-8226 39.3 µM | SF-268 92.3 µM | UO-31 29.8 µM
83.4 µM: HCT-15

Cc1cn(CCC(N)C(=O)O)c(=O)[nH]c1=O (centres undefined)
inactive: OVCAR-4 > 100 µM | UACC-257 > 100 µM | MDA-MB-435 > 100 µM | OVCAR-8 > 100 µM | SK-OV-3 > 100 µM | CCRF-CEM > 100 µM | HCT-116 > 100 µM | NCI/ADR-RES > 100 µM | OVCAR-5 > 100 µM | SR > 100 µM | 786-0 > 100 µM | MDA-N > 100 µM | UACC-62 > 100 µM | M14 > 100 µM | K562 > 100 µM | HL-60 > 100 µM | MCF7 > 100 µM | SN12C > 100 µM | U-251 > 100 µM | BT-549 > 100 µM | SNB-75 > 100 µM | NCI-H23 > 100 µM | ACHN > 100 µM | HT-29 > 100 µM | SK-MEL-5 > 100 µM | SK-MEL-28 > 100 µM | MDA-MB-231 > 100 µM | PC-3 > 100 µM | TK-10 > 100 µM | SK-MEL-2 > 100 µM | SF-295 > 100 µM | Hs-578T > 100 µM | MOLT-4 > 100 µM | T47D > 100 µM | HOP-92 > 100 µM | NCI-H522 > 100 µM | LOX IMVI > 100 µM | OVCAR-3 > 100 µM | NCI-H460 > 100 µM | SF-539 > 100 µM | EKVX > 100 µM | HOP-62 > 100 µM | COLO 205 > 100 µM | IGROV-1 > 100 µM | NCI-H226 > 100 µM | Malme-3M > 100 µM | A549 > 100 µM | RXF 393 > 100 µM | SW-620 > 100 µM | DU-145 > 100 µM | SNB-19 > 100 µM | A498 > 100 µM | KM12 > 100 µM | RPMI-8226 > 100 µM | SF-268 > 100 µM | UO-31 > 100 µM
> 100 µM: HCT-15

CO/C=C(/C(=O)OC)c1ccccc1[C@H]1C[C@@H]1c1ccc(OC)cc1
19.2 µM: HCT-15
inactive: OVCAR-4 8.05 µM | UACC-257 25.8 µM | MDA-MB-435 7.76 µM | OVCAR-8 28.6 µM | SK-OV-3 17.8 µM | CCRF-CEM 25.4 µM | HCT-116 16.3 µM | NCI/ADR-RES 20.2 µM | OVCAR-5 41.1 µM | CAKI-1 17.9 µM | SR 8.73 µM | 786-0 34 µM | MDA-N 12.9 µM | UACC-62 23.1 µM | M14 18.3 µM | K562 15.8 µM | HL-60 25.2 µM | MCF7 32.1 µM | SN12C 32.1 µM | U-251 30.8 µM | BT-549 17.7 µM | HCC 2998 17.2 µM | NCI-H23 27.9 µM | ACHN 22 µM | HT-29 14.9 µM | SK-MEL-5 12.4 µM | SK-MEL-28 18.1 µM | MDA-MB-231 25.5 µM | PC-3 22.1 µM | TK-10 37.5 µM | SK-MEL-2 13.2 µM | SF-295 17.2 µM | Hs-578T 25.9 µM | MOLT-4 17.1 µM | T47D 21.1 µM | HOP-92 9.33 µM | NCI-H522 7.93 µM | OVCAR-3 16.3 µM | NCI-H460 21.9 µM | SF-539 17 µM | EKVX 14.3 µM | HOP-62 33.9 µM | COLO 205 13.1 µM | IGROV-1 14.3 µM | NCI-H226 30.2 µM | Malme-3M 15.6 µM | A549 20.8 µM | RXF 393 49.9 µM | DU-145 32.1 µM | SNB-19 53.7 µM | A498 28.1 µM | KM12 18.4 µM | RPMI-8226 18.2 µM | SF-268 25.1 µM | UO-31 26.4 µM
